In patent publication US20220096529A1, “2-HYDROXYPROPYL-BETA-CYCLODEXTRIN (HPBETACD) FOR USE IN THE TREATMENT OF BREAST CANCER” (UNIVERSITY OF THE WITWATERSRAND, JOHANNESBURG, priority 2019, published 2022):

Key:
Assay type in all cases: cell-based, human
MRC-5 cells = assay: ROS assay; conditions: MRC-5, 10 mM, 24 hrs
Procedure: (§1) To further validate the occurrence of apoptosis and to investigate the exact mechanisms if apoptosis, a ROS assay was conducted to capture the production of ROS. […] In order to be in solidarity with this fact, a ROS assay was performed in three cell lines: MCF7, MDA-MB-231 & MRC-5. Like before, HPβCD and the positive (10 mM H2O2) were treated for 24 hrs. The right hand section in each plot represents the production of ROS.

MCF7 cells [1] = assay: ROS assay; conditions: MCF7, 10 mM, 24 hrs
Procedure: as §1

MDA-MB-231 cells [2] = assay: ROS assay; conditions: MDA-MB-231, 10 mM, 24 hrs
Procedure: as §1

MCF7 cells [3] = assay: Mitochondrial outer membrane potential assay (MOMP); conditions: MCF7, 10 mM, 24 hrs
Procedure: (§2) One of the key hallmarks of apoptosis is the loss of mitochondrial membrane potential. To investigate that aspect we did a MOMP assay which validates our Cell-APOPercentage assay. This assay was tested on three cell lines MCF7, MDA-MB-231 & MRC-5. The top right and bottom hand quadrants of each plot represents healthy (FL2-A) and apoptotic (FL1-A) cells respectively (see FIGS. 13 to 15).
(§3) From the results obtained from MTT (IC50 values) and Cell-APOPercentage assays it was quite evident that ˜10 mM HPβCD caused cellular growth inhibition through apoptosis in cancer cells and had little or no effect in normal cells. Therefore, we selected just 10 mM HPβCD going forward as the only working concentration for HPβCD treatment. 24 hrs time point was selected (HPβCD & 10 mM H2O2) because mitochondrial membrane potential loss is an early cellular event.

MDA-MB-231 cells [4] = assay: as above; conditions: MDA-MB-231, 10 mM, 24 hrs
Procedure: as §2, §3

MCF7 cells [5] = assay: MTT growth inhibition assay; conditions: Homo sapiens, MCF7, 40 μM Plumbagin
Procedure: (§4) Cells were cultured in appropriate medium supplemented with 10% FCS, penicillin (100 U/ml), and streptomycin (100 μg/ml) (Gibco) at 5% CO2 in a 37° C. incubator.
(§5) Four different cell lines were used MCF7 (ER+). MDA-MB-231 (ER−), MRC-5 (Lung Fibroblasts) and HEK-293 (Embryonic kidney). MRC-5 and/or HEK-293 were used as control cell lines depending on availability.
(§6) In order to determine whether HPβCD has the ability to induce cancer cell death a primary screening using an MTT assay was performed. Three different time points 24 hrs.

MDA-MB-231 cells [6] = assay: MTT growth inhibition assay; conditions: Homo sapiens, MDA-MB-231, 40 μM Plumbagin
Procedure: as §4, §5, §6

HEK-293 cells = assay: Caspase 3/7 assay; conditions: HEK-293, 40 μM Plumbagin, 24 hrs
Procedure: (§7) The final step in apoptosis following the intrinsic pathway is the activation of executioner caspases like caspase 3 and caspase 7 […]. Therefore, to confirm that cell death was due to the mitochondrial mediated pathway of apoptosis a Caspase 3/7 assay was conducted. Caspases are activated in response to a myriad of cellular death stimuli and they dismantle the cell. Caspase 3 and caspase 7 contribute to the majority of proteolytic cleavage occurring in apoptosis. As a final step to confirm and validate apoptosis via the mitochondrial intrinsic pathway, the Caspase 3/7 assay was conducted on three cell lines: MCF7, MDA-MB-231 & HEK-293. HPβCD and positive (40 μM PL) were treated for 24 hrs. The percentage of dead/apoptotic cells are clearly indicated in specific corners of each quadrants in the above plots.

MCF7 cells [7] = assay: Caspase 3/7 assay; conditions: MCF7, 40 μM Plumbagin, 24 hrs
Procedure: as §7

MDA-MB-231 cells [8] = assay: Caspase 3/7 assay; conditions: MDA-MB-231, 40 μM Plumbagin, 24 hrs
Procedure: as §7

MCF7 cells [9] = assay: Cell-APOPercentage apoptosis assay; conditions: MCF7, 10 μM Plumbagin, 24 hrs
Procedure: (§8) APOPercentage assays gives a measure of overall apoptosis in the cell. Apoptosis is an early event and therefore just one time point (24 hrs) was selected and tested on four cell lines MCF7, MDA-MB-231, MRC-5 & HEK-293 cells. 10 μM Plumbagin was used a positive control as opposed to 40 μM from MTT because higher concentrations of plumbagin was way too toxic for the cells and to capture the early activity, optimal dosage was required. To confirm the growth inhibition obtained from the MTT assay was actually due to apoptosis, a Cell-APOPercentage Apoptosis assay was performed according to known methods.

MDA-MB-231 cells [10] = assay: Cell-APOPercentage apoptosis assay; conditions: MDA-MB-231, 10 μM Plumbagin, 24 hrs
Procedure: as §8

SMILES | ROS generation (MRC-5 cells) | ROS generation (MCF7 cells [1]) | ROS generation (MDA-MB-231 cells [2]) | apoptotic population (loss of mitochondrial membrane potential) (MCF7 cells [3]) | apoptotic cells / cell death (loss of mitochondrial membrane potential) (MDA-MB-231 cells [4]) | inhibition at 40 µM (MCF7 cells [5]; 24 hrs) | inhibition at 40 µM (MCF7 cells [5]; 48 hrs) | inhibition at 40 µM (MCF7 cells [5]; 72 hrs) | inhibition at 40 µM (MDA-MB-231 cells [6]; 24 hrs) | inhibition at 40 µM (MDA-MB-231 cells [6]; 48 hrs) | inhibition at 40 µM (MDA-MB-231 cells [6]; 72 hrs) | Total Apoptotic (caspase 3/7) (HEK-293 cells) | Total Apoptotic (caspase 3/7) (HEK-293 cells; listed as PL) | Total Apoptotic (caspase 3/7) (MCF7 cells [7]) | Total Apoptotic (caspase 3/7) (MDA-MB-231 cells [8]) | apoptosis (MCF7 cells [9]) | apoptosis (MDA-MB-231 cells [10])
OO [H2O2, reference compound] | 64.1% | 88.5% | 73% | 92.1% | 92.4% | – | – | – | – | – | – | – | – | – | – | – | –
CC1=CC(=O)c2c(O)cccc2C1=O [Plumbagin, reference compound] | – | – | – | – | – | ~80% | ~90% | ~100% | ~85% | ~92% | ~95% | 72.40% | 72.4% | 23.55% | 80.45% | ~90% | ~90%
